# Results published in patent US7553841B2, “Amino cyclobutylamide modulators of chemokine receptor activity” (Merck & Co., Inc., priority 2003, dated 2009).
# Test system: chemokine receptor
# Assay: activity of separated cis/trans isomers (test not described)
# Settings: cis versus trans isomer of the same example, separated by chromatography; values not given
row,SMILES,relative activity of the separated isomers
1,CC(O)[C@]1(C(=O)NCc2cncc(C(F)(F)F)c2)C[C@@H](N2CC[C@@]3(C=Cc4ccccc43)[C@@H](C)C2)C1 (mixture of isomers) [Example 122 cis isomer],more active isomer
2,C[C@H]1CN(C2CC(C(=O)NCc3cc(C(F)(F)F)cc(C(F)(F)F)c3)C2)CC[C@@]12C=Cc1ccccc12 (stereo partly drawn) [Example 1 cis isomer],more active isomer
3,CN(C1CCOCC1)C1CC(C(=O)NCc2cc(C(F)(F)F)cc(C(F)(F)F)c2)(c2ccccc2)C1 (stereo not drawn) [Example 41 cis isomer],more active isomer
4,CN(C1CCOCC1)C1CC(C(=O)NCc2cc(F)cc(C(F)(F)F)c2)(c2ccccc2)C1 (stereo not drawn) [Example 42 trans isomer],active isomer
5,C[C@H]1CN(C2CC(CNC(=O)c3cc(C(F)(F)F)cc(C(F)(F)F)c3)(c3ccccc3)C2)CC[C@@]12C=Cc1ccccc12 (stereo partly drawn) [Example 43 cis isomer],active isomer
6,C[C@H]1CN(C2CC(C)(C(=O)NCc3cc(C(F)(F)F)cc(C(F)(F)F)c3)C2)CC[C@@]12C=Cc1ccccc12 (stereo partly drawn) [Example 54 cis isomer],more active isomer
